According to US20240082222A1, “4-CHLORO-N-[2-[(4-CHLOROPHENYL)METHYL]-3-OXO-1,2,4-THIADIAZOL-5-YL]BENZAMIDE FOR USE IN MEDICINE” (Betagenon AB, priority 2021, published 2024):
Values joined by “and” are separate entries in the source; they are usually repeats but may differ in a detail not shown here. Identical values can stand only once. Counter-ions that a name gives are not always drawn. Like-named read-outs stand apart in the source and are kept apart here.

Assay: Pharmacokinetic study in humans, sodium salt tablets, multiple dose (Example 3)
Format: in vivo, human
Description: An open, randomised, parallel-group study was conducted to evaluate the exposure and safety of 4-chloro-N-[2-[(4-chlorophenyl)methyl]-3-oxo-1,2,4-thiadiazol-5-yl]benzamide sodium salt tablets in doses of 212.12 mg and 424.24 mg (equivalent to 200 mg and 400 mg doses of 4-chloro-N-[2-[(4-chlorophenyl)methyl]-3-oxo-1,2,4-thiadiazol-5-yl]benzamide) at steady state in healthy volunteers (hereafter referred to as subjects).
Each “400 mg” tablet contained 424.24 mg of a sodium salt of 4-chloro-N-[2-[(4-chlorophenyl)methyl]-3-oxo-1,2,4-thiadiazol-5-yl]benzamide (Compound of formula II) which corresponds to 400 mg of the parent compound 4-chloro-N-[2-[(4-chlorophenyl)methyl]-3-oxo-1,2,4-thiadiazol-5-yl]benzamide.
Twenty (20) subjects were randomised (1:1) to treatment with either 200 mg (1 tablet of 200 mg) or 400 mg (1 tablet of 400 mg) of the test substance.
A screening visit (Visit 1) was performed within 28 days before randomisation and the start of IMP administration. The subjects arrived at the research clinic on Day 1 (Visit 2), randomised, and received the first administration of the test substance (200 mg or 400 mg as randomised).
The subjects returned to the clinic in the morning of Day 2 (Visit 3) for pre-dose PK sampling and subsequent administration of the test substance.
Before leaving the clinic, the subjects were provided with the test substance for 18 days once daily self-administration at home (Day 3 to Day 20).
After 18 days of home-based self-administration of the test substance, the subjects returned to the clinic in the morning of Day 21 (Visit 5) for pre-dose PK sampling and subsequent administration of the last dose of the test substance. The subjects remained at the clinic for at least 8 hours post-dose for safety assessments and additional PK sampling. In the morning of Day 22 (Visit 6), the subjects came for a last visit to the clinic for a final PK sample 24 hours after the last dose.
Venous blood samples (approximately 5 mL) for the determination of plasma concentrations of 4-chloro-N-[2-[(4-chlorophenyl)methyl]-3-oxo-1,2,4-thiadiazol-5-yl]benzamide after administration of the test substance were collected through an indwelling venous catheter on Days 2, 21 and 22.
The blood samples were collected in pre-labelled Li-Heparin tubes. All the collected blood samples were be centrifuged at 1500 G for 10 minutes to separate plasma within 60 minutes from the sample is drawn. The separated plasma from each blood sample was be divided into 2 aliquots in pre-labelled polypropylene cryotubes (A and B samples, approximately 750 μL in each tube) and frozen at <−70° C.
Samples for determination of plasma concentrations of 4-chloro-N-[2-[(4-chlorophenyl)methyl]-3-oxo-1,2,4-thiadiazol-5-yl]benzamide were analysed by Lablytica Life Science AB, Uppsala, Sweden by means of a validated LS-MS/MS method.
The data of plasma concentration to respective time points for the analyte (4-chloro-N-[2-[(4-chlorophenyl)methyl]-3-oxo-1,2,4-thiadiazol-5-yl]benzamide) were used for the pharmacokinetic analysis. Pharmacokinetic analysis was performed using non-compartmental analysis (NCA) module of Phoenix WinNonlin 8.1 software to determine the following pharmacokinetic parameters after multiple dose administration of test substance.
Primary endpoint: • Cmax, AUC0-last, Tmax at steady state Day 21 in each dose group.

[1] = 200 mg Dose Group, tablet once daily, Day 21, individual subjects, listed as O304 Na salt
[2] = 212 mg sodium salt in tablet form
[3] = 400 mg Dose Group, tablet once daily, Day 21, individual subjects, listed as O304 Na salt

Question: With O=C(Nc1nc(=O)n(Cc2ccc(Cl)cc2)s1)c1ccc(Cl)cc1 [Compound of formula II, sodium salt of 4-chloro-N-[2-[(4-chlorophenyl)methyl]-3-oxo-1,2,4-thiadiazol-5-yl]benzamide] as the compound, how does the Tlast (200 mg Dose Group, tablet once daily, Day 21, Mean) read?
Answer: Its Tlast is 24.01 h.

Question: What about the Tlast (200 mg Dose Group, tablet once daily, Day 21, Median) of the same compound?
Answer: The Tlast was 24.0 h.

Question: What about the Clast [1] of the same compound?
Answer: The Clast was 80.1 µg/mL and 109 µg/mL and 144 µg/mL and 51.7 µg/mL and 76.9 µg/mL and 62.3 µg/mL and 65.1 µg/mL and 81.3 µg/mL and 53.4 µg/mL.

Question: What about the Tlast [1] of the same compound?
Answer: Its Tlast is 24.0 h (8×) and 24.1 h.

Question: And the Tmax [1]?
Answer: The Tmax was 24.0 h and 0.00 h and 2.00 h and 4.00 h.

Question: And the “increase in systemic accumulation from Day 1 to Day 21” value [2]?
Answer: The value was “approximately seven-fold”.

Question: And the “increase in systemic exposure, tablet compared to capsules containing 200 mg” value [2]?
Answer: The value was “up to two-fold”.

Question: What about the Tlast (400 mg Dose Group, tablet once daily, Day 21, Mean) of the same compound?
Answer: The Tlast was 24.07 h.

Question: What about the Tlast (400 mg Dose Group, tablet once daily, Day 21, Median) of the same compound?
Answer: Its Tlast is 24.0 h.

Question: What about the AUClast [3] of the same compound?
Answer: The AUClast was 4790 µg·h/mL and 3600 µg·h/mL and 2450 µg·h/mL and 2950 µg·h/mL and 3550 µg·h/mL and 2800 µg·h/mL and 2460 µg·h/mL.

Question: And the Clast [3]?
Answer: The Clast was 116 µg/mL and 201 µg/mL and 151 µg/mL and 96.7 µg/mL and 135 µg/mL and 144 µg/mL and 111 µg/mL and 106 µg/mL and 100 µg/mL.

Question: And the Cmax [3]?
Answer: Its Cmax is 201 µg/mL and 169 µg/mL and 106 µg/mL and 135 µg/mL and 168 µg/mL and 124 µg/mL and 105 µg/mL.

Question: And the Tlast [3]?
Answer: Its Tlast is 24.0 h (6×) and 24.4 h and 24.1 h (2×).

Question: And the Tmax [3]?
Answer: The Tmax was 24.4 h and 4.00 h and 8.02 h and 24.1 h and 24.0 h.

Question: What about the “increase in systemic accumulation from Day 1 to Day 21” value (424 mg sodium salt in tablet form) of the same compound?
Answer: The value was “approximately five-fold”.

Question: What about the AUC(0-t) (human, plasma, oral, 200 mg, 200 mg Dose Group, tablet once daily, Day 21, Mean) of the same compound?
Answer: The AUC(0-t) was 1940 µg·h/mL.

Question: And the concentration at 24 h (human, plasma, oral, 200 mg, 200 mg Dose Group, tablet once daily, Day 21, Mean, read-out: Clast)?
Answer: Its concentration at 24 h is 80.4 µg/mL.

Question: And the Cmax (human, plasma, oral, 200 mg, 200 mg Dose Group, tablet once daily, Day 21, Mean, read-out: Cmax)?
Answer: Its Cmax is 86.8 µg/mL.

Question: What about the Tmax (human, plasma, oral, 200 mg, 200 mg Dose Group, tablet once daily, Day 21, Mean, read-out: Tmax) of the same compound?
Answer: Its Tmax is 10.9 h.

Question: And the AUC(0-t) (human, plasma, oral, 200 mg, 200 mg Dose Group, tablet once daily, Day 21, Median)?
Answer: The AUC(0-t) was 1720 µg·h/mL.

Question: What about the concentration at 24 h (human, plasma, oral, 200 mg, 200 mg Dose Group, tablet once daily, Day 21, Median, read-out: Clast) of the same compound?
Answer: The concentration at 24 h was 76.9 µg/mL.

Question: And the Cmax (human, plasma, oral, 200 mg, 200 mg Dose Group, tablet once daily, Day 21, Median, read-out: Cmax)?
Answer: The Cmax was 77.1 µg/mL.

Question: And the Tmax (human, plasma, oral, 200 mg, 200 mg Dose Group, tablet once daily, Day 21, Median, read-out: Tmax)?
Answer: Its Tmax is 8 h.

Question: What about the concentration at 24 h (human, plasma, oral, 200 mg, 200 mg dose group (212.12 mg sodium salt tablet once daily), 24 h after dose of Day 1, read-out: Clast at 24 hours, Mean) of the same compound?
Answer: The concentration at 24 h was 11.4 µg/mL.

Question: And the concentration at 24 h (human, plasma, oral, 200 mg, 200 mg dose group (212.12 mg sodium salt tablet once daily), 24 h after dose of Day 1, read-out: Clast at 24 hours, Median)?
Answer: Its concentration at 24 h is 11.2 µg/mL.

Question: And the concentration at 24 h (human, plasma, oral, 200 mg, 200 mg dose group (212.12 mg sodium salt tablet once daily), 24 h after dose of Day 21, read-out: Clast at 24 hours, Mean)?
Answer: The concentration at 24 h was 80.4 µg/mL.

Question: And the concentration at 24 h (human, plasma, oral, 200 mg, 200 mg dose group (212.12 mg sodium salt tablet once daily), 24 h after dose of Day 21, read-out: Clast at 24 hours, Median)?
Answer: Its concentration at 24 h is 76.9 µg/mL.

Question: And the AUC(0-t) (human, plasma, oral, 400 mg, 400 mg Dose Group, tablet once daily, Day 21, Mean)?
Answer: Its AUC(0-t) is 3110 µg·h/mL.

Question: What about the concentration at 24 h (human, plasma, oral, 400 mg, 400 mg Dose Group, tablet once daily, Day 21, Mean, read-out: Clast) of the same compound?
Answer: The concentration at 24 h was 129 µg/mL.

Question: And the Cmax (human, plasma, oral, 400 mg, 400 mg Dose Group, tablet once daily, Day 21, Mean, read-out: Cmax)?
Answer: Its Cmax is 138 µg/mL.

Question: And the Tmax (human, plasma, oral, 400 mg, 400 mg Dose Group, tablet once daily, Day 21, Mean, read-out: Tmax)?
Answer: Its Tmax is 11.2 h.

Question: What about the AUC(0-t) (human, plasma, oral, 400 mg, 400 mg Dose Group, tablet once daily, Day 21, Median) of the same compound?
Answer: Its AUC(0-t) is 2930 µg·h/mL.

Question: What about the concentration at 24 h (human, plasma, oral, 400 mg, 400 mg Dose Group, tablet once daily, Day 21, Median, read-out: Clast) of the same compound?
Answer: Its concentration at 24 h is 116 µg/mL.

Question: What about the Cmax (human, plasma, oral, 400 mg, 400 mg Dose Group, tablet once daily, Day 21, Median, read-out: Cmax) of the same compound?
Answer: The Cmax was 132 µg/mL.

Question: What about the Tmax (human, plasma, oral, 400 mg, 400 mg Dose Group, tablet once daily, Day 21, Median, read-out: Tmax) of the same compound?
Answer: Its Tmax is 4.02 h.

Question: What about the AUC(0-t) (human, plasma, oral, 400 mg, 400 mg Dose Group, tablet once daily, Day 21, individual subjects) of the same compound?
Answer: Its AUC(0-t) is 2930 µg·h/mL.

Question: And the Cmax (human, plasma, oral, 400 mg, 400 mg Dose Group, tablet once daily, Day 21, individual subjects, read-out: Cmax)?
Answer: The Cmax was 132 µg/mL.

Question: What about the concentration at 24 h (human, plasma, oral, 400 mg, 400 mg dose group (424.24 mg sodium salt tablet once daily), 24 h after dose of Day 1, read-out: Clast at 24 hours, Mean) of the same compound?
Answer: The concentration at 24 h was 24.9 µg/mL.

Question: And the concentration at 24 h (human, plasma, oral, 400 mg, 400 mg dose group (424.24 mg sodium salt tablet once daily), 24 h after dose of Day 1, read-out: Clast at 24 hours, Median)?
Answer: Its concentration at 24 h is 21.5 µg/mL.

Question: What about the concentration at 24 h (human, plasma, oral, 400 mg, 400 mg dose group (424.24 mg sodium salt tablet once daily), 24 h after dose of Day 21, read-out: Clast at 24 hours, Mean) of the same compound?
Answer: The concentration at 24 h was 129 µg/mL.

Question: What about the concentration at 24 h (human, plasma, oral, 400 mg, 400 mg dose group (424.24 mg sodium salt tablet once daily), 24 h after dose of Day 21, read-out: Clast at 24 hours, Median) of the same compound?
Answer: Its concentration at 24 h is 116 µg/mL.

Question: What about the “peak blood plasma concentration” value (repeated dosing of 212 mg in the form of a tablet) of the same compound?
Answer: The value was at least 85 µg/mL.

Question: What about the “accumulation in the blood plasma after repeat dosing” value (tablets, once daily) of the same compound?
Answer: Its value is “substantial accumulation”.
